According to patent US11192869B2, “CFTR regulators and methods of use thereof” (THE REGENTS OF THE UNIVERSITY OF CALIFORNIA, priority 2015, dated 2021):
“Also recorded” adds a separate entry of the source. Read-outs that look alike come from different tables or passages of the source. Where a SMILES comes first, the peptide text is derived from it. Bridges are numbered along the chain shown (N, C = ends).

Key:
[1] = Tear film pharmacokinetics by LC/MS; conditions: from quantity recovered vs EC50
[2] = mouse, in vivo, topical or ocular
[3] = Ocular toxicity after chronic topical dosing (slit-lamp, lissamine green); format: in vivo; conditions: chronically treated mice
Experimental: (§1) Lissamine green staining. To assess corneal epithelial disruption, 5 μL of lissamine green (LG) dye (1%) was applied to the ocular surface of isofluorane-anesthetized mice. Photographs of the eye were taken using a Nikon Digital camera adapted to an Olympus Zoom Stereo Microscope (Olympus, Center Valley, Pa., USA). Each corneal quadrant was scored on a 3-point scale by one blinded, trained observer, with the extent of staining in each quadrant classified as: 0, no staining; 1, sporadic (involving <25% of the total surface) staining; grade 2, diffuse punctate staining (25-75%); and grade 3, coalesced punctate staining (>75%). The total grade is reported as the sum of scores from all four quadrants, ranging from 0 to 12.

ocular surface = experiment: Ocular surface potential difference measurements; format: in vivo, mouse; conditions: wild-type mice, 1-10 μM
Experimental: Ocular surface potential difference measurements. Open-circuit transepithelial PD were measured continuously in anesthetized mice in response to serial perfusions of different solutions over the ocular surface, as described (21). Mice were anesthetized with Avertin (2,2,2-tribromoethanol, 125 mg/kg intraperitoneal, Sigma-Aldrich, St. Louis, Mo., USA), and core temperature was maintained at 37° C. using a heating pad. Eyes were oriented with the cornea and conjunctiva facing upward and exposed by retracting the eyelid with cross-action forceps. Solutions were isosmolar (320±10 mOsM; compositions provided in ref. 21) and contained 10μ[…] □ indomethacin to prevent CFTR activation by prostaglandins. The ocular surface was perfused at 6 mL/min through plastic tubing using a multireservoir gravity pinch-valve system (ALA Scientific, Westbury, N.Y., USA) and variable-flow peristaltic pump (medium flow model; Fisher Scientific, Fair Lawn, N.J., USA). A probe catheter was fixed 1 mm above the cornea using a micropositioner and a suction cannula was positioned 3 mm from the orbit. The measuring electrode was in contact to the perfusion catheter and connected to a high-impedance voltmeter (IsoMilivolt Meter; WPI). The reference electrode was grounded via a winged 21-gauge needle filled with isosmolar saline, and inserted subcutaneously in the abdomen. Measuring and reference electrodes consisted of Ag/AgCl with 3 M KCl agar bridges.
Ocular surface potential difference measurements. Open-circuit transepithelial PD were measured continuously in anesthetized mice in response to serial perfusions of different solutions over the ocular surface, as described (21). Mice were anesthetized with Avertin (2,2,2-tribromoethanol, 125 mg/kg intraperitoneal, Sigma-Aldrich, St. Louis, Mo., USA), and core temperature was maintained at 37° C. using a heating pad. Eyes were oriented with the cornea and conjunctiva facing upward and exposed by retracting the eyelid with cross-action forceps. […]

human wild-type CFTR = target: T1, human wild-type CFTR (Homo sapiens, UniProt P13569); experiment: Short-circuit current in FRT cells expressing wild-type human CFTR; format: cell-based; conditions: for CFTR activation (in words): short-circuit current
T1 construct: expressed in transfected cells
T1 sequence (P13569 whole entry): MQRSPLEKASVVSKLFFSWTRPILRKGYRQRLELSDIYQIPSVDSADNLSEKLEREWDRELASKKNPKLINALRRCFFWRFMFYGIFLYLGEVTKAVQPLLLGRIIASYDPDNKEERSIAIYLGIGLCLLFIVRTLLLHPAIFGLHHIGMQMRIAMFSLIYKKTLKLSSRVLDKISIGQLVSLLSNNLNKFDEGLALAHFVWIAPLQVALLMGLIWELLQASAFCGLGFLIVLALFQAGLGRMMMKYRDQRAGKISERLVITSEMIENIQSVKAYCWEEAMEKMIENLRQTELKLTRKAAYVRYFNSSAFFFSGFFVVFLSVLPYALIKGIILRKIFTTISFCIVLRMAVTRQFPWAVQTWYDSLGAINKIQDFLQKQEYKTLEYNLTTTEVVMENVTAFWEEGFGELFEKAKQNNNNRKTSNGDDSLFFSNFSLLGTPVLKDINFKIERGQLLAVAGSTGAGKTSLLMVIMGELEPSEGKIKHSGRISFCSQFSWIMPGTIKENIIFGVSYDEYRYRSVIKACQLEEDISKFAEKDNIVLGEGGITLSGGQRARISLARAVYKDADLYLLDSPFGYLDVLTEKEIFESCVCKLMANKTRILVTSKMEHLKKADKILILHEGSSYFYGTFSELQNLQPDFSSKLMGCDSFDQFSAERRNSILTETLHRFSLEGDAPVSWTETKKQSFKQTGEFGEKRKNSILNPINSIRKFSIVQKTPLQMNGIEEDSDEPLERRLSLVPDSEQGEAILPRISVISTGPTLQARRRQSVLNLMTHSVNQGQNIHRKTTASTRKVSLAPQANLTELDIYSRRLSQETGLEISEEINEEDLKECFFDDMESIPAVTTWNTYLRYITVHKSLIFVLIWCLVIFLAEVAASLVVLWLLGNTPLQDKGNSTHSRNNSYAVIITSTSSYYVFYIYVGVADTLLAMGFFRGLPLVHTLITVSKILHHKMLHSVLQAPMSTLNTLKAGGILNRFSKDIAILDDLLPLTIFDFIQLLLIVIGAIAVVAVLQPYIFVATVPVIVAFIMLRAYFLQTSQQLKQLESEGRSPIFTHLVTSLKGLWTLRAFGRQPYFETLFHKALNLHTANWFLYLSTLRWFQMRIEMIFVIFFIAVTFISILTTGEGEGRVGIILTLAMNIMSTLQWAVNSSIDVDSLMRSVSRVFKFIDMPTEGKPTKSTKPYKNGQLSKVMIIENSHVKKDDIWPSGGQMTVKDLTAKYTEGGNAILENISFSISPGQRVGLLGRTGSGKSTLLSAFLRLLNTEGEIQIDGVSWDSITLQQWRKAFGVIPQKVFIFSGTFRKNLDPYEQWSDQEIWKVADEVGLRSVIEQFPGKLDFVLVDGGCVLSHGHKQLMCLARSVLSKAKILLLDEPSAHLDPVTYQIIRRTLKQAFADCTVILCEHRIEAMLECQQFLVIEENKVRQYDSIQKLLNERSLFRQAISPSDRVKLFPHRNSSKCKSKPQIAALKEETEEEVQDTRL
Experimental: Short-circuit current measurement. Short-circuit current was measured in FRT cells stably expressing wild-type human CFTR cultured on porous filters as described. The basolateral solution contained 130 mM NaCl, 2.7 mM KCl, 1.5 mM KH2PO4, 1 mM CaCl2, 0.5 mM MgCl2, 10 mM glucose, and 10 mM Na-HEPES (pH 7.3, 37° C.). In the apical solution 65 mM NaCl was replaced by Na gluconate, and CaCl2 was increased to 2 mM, and the basolateral membrane was permeabilized with 250 μg/ml amphotericin B. Short-circuit current was measured in freshly harvested adult mouse colon at 37° C. using symmetrical Krebs-bicarbonate buffer.
Short-circuit current. Fischer rat thyroid (FRT) cells stably expressing wild-type human CFTR were cultured on Snapwell inserts (Corning Costar, Corning N.Y., USA) for short-circuit current (Isc) measurements. After 6-9 days in culture, when the transepithelial resistance was >1000 Ω/cm^2, the inserts were mounted in an Ussing chamber system (World Precision Instruments, Sarasota, Fla., USA). The basolateral solution contained 130 mM NaCl, 2.7 mM KCl, 1.5 mM KH2PO4, 1 mM CaCl2, 0.5 mM MgCl2, 10 mM glucose, and 10 mM Na-HEPES (pH 7.3). In the apical bathing solution, 65 mM NaCl was replaced by Na gluconate, and CaCl2 was increased to 2 mM. Both solutions were bubbled with air and maintained at 37° C. The basolateral membrane was permeabilized with 250 μg/ml amphotericin B (26, 27). Hemichambers were connected to a DVC-1000 voltage clamp via Ag/AgCl electrodes and 3 M KCl agar bridges for Isc recording.

[4] = system: mouse model of aqueous-deficient dry eye produced by lacrimal gland excision; experiment: Lacrimal gland excision (LGE) mouse model of dry eye; format: in vivo; conditions: 0.1 nmol topically three times daily
Experimental: Tear secretion. To measure unstimulated tear production, phenol red threads (Zone-Quick, Oasis Medical, Glendora, Calif., USA) were placed for 10 s in the lateral canthi of isofluorane-anesthetized mice using jewelers' forceps. Tear volume was measured as the length of thread wetting, as visualized under a dissecting microscope. Serial measurements were used to evaluate compound pharmacodynamics after application of 2-μL drops of compound formulations (50-100 μM compound in PBS containing 0.5% polysorbate and 0.5% DMSO) comparing to vehicle.
as §1
Mouse model of dry eye produced by lacrimal gland excision. […]

tear secretion = experiment: Tear secretion (phenol red thread); format: in vivo, mouse; conditions: for increase of tear fluid secretion: single topical dose, for (at least) four hours
[5] = mouse, in vivo
[6] = juvenile rats; cited from earlier work
[7] = system: loperamide-induced mouse model of constipation; experiment: Loperamide-induced mouse model of constipation
[8] = cited from earlier work

Molecule: CCN(CC)c1nc(Nc2ccccc2)nc(OC(C(F)(F)F)C(F)(F)F)n1 [CFTRact-K089]
- duration of therapeutic levels in tear fluid [1]: predicts therapeutic levels for at least six hours
- tear film bioavailability (in words) [2]: sustained tear film bioavailability
- LG staining, corneal or conjunctival epithelial disruption [3]: no corneal or conjunctival epithelial disruption
- ocular toxicity by slit-lamp evaluation [3]: no signs of ocular toxicity
- change in ocular surface PD (in words) (ocular surface): large hyperpolarizations
- CFTR activation (human wild-type CFTR; Isc): ~50 % Vmax
- CFTR activation (in words) (human wild-type CFTR; wild-type CFTR): fully activated CFTR
- corneal / ocular surface epithelial disruption after LGE [4]: prevents corneal epithelial disruption; also recorded: fully prevented; also recorded: prevented ocular surface epithelial disruption
- tear secretion / tear volume after LGE [4]: restored tear secretion
- tear fluid secretion in CF mice (tear secretion; CF mice): no effect
- increase of tear fluid secretion (tear secretion): doubled; also recorded: approximately two-fold
- systemic absorption (in words) [5]: without detectable systemic absorption

Molecule: CC(C)Cn1c(=O)n(C)c(=O)c2[nH]cnc21 [IBMX, 3-isobutyl-1-methylxanthine, reference compound]
- persistence of tear secretion effect (tear secretion; after 2 hours): transient and undetectable after 2 hours

Molecule: CC(C)(C)c1cc(C(C)(C)C)c(NC(=O)c2c[nH]c3ccccc3c2=O)cc1O [VX-770, reference compound]
- change in ocular surface PD (in words) (ocular surface): minimal changes
- adverse finding on chronic application [6]: cataracts
- CFTR activation (in words) (human wild-type CFTR; wild-type CFTR): relatively little activity; also recorded: relatively weak activity
- Emax (human wild-type CFTR; wild-type CFTR, read-out: maximal activation of CFTR): 15%
- increase of tear fluid secretion (tear secretion): little tear secretion

Molecule: Cn1c(=O)c(-c2cc([N+](=O)[O-])ccc2N)nc2ccccc21 [inactive chemical analog of CFTRact-J027, reference compound]
- efficacy of inactive analog in wildtype mice ([7]; loperamide model, wildtype mice): nor was an inactive chemical analog of CFTRact-J027 effective

Molecule: C[C@@H]1NC(=O)[C@@H]2CCCN2C(=O)[C@H](CC(N)=O)NC(=O)[C@@H]2CSSC[C@H](N)C(=O)N[C@H]3CSSC[C@H](NC1=O)C(=O)N[C@@H]([C@@H](C)O)C(=O)NCC(=O)N[C@H](C(=O)N[C@@H](Cc1ccc(O)cc1)C(=O)O)CSSC[C@H](NC(=O)[C@H](Cc1ccc(O)cc1)NC(=O)[C@H](CCC(=O)O)NC3=O)C(=O)N2 [linaclotide, reference compound] (H-CCEYCCNPACTGCY-OH; disulfide 1-6, 2-10, 5-13)
- patients in whom effective ([8]; chronic constipation patients): ~20%
- stool output, % of the maximal CFTRact-J027 response ([7]; oral 0.5 mg/kg, loperamide-treated mice): 35%

Molecule: CCCCC(F)(F)[C@@]1(O)CC[C@H]2[C@@H](CC(=O)[C@@H]2CCCCCCC(=O)O)O1 [lubiprostone]
- patients in whom effective ([8]; IBS-C patients): ~13%

Molecule: cholera toxin [reference compound]
- persistence of tear secretion effect (tear secretion; mouse, in vivo): transient and undetectable after 2 hours
